Laboratory results from patent publication EP4692061A1, “LOW-MOLECULAR-WEIGHT COMPOUND HAVING CEREBLON-BINDING ACTIVITY, AND USE THEREOF” (Aevis Bio, Inc., priority 2023, dated 2024).

Target: cereblon (CRBN) (Homo sapiens, UniProt Q96SW2)
Experiment: In vitro CRBN binding assay (AlphaScreen, competitive inhibition of the PROTAC assay)
Conditions: not given

Row | SMILES | IC50 [nM]
1 | O=C1CCC(c2ccc3c(c2)CCNC3=O)C(=O)N1 (stereo not shown) [AEV40041] | 760

Same assay, conditions: Table 1; AlphaScreen, PROTAC Optimization Kit for BET Bromodomain-Cereblon Binding; read-out: Alpha IC50

Row | SMILES | IC50 [nM]
2 | CC(C)(C)OC(=O)NCc1cccc(C2CCC(=O)NC2=O)c1 (stereo not shown) [AEV40130] | 4330
3 | O=C1CCC(c2cccc(NCc3cccc(Oc4ccccc4)c3)c2)C(=O)N1 (stereo not shown) [AEV40121] | 3040
4 | C[C@H](O)C(=O)Nc1cccc(C2CCC(=O)NC2=O)c1 (stereo partly shown) [AEV40031] | 3860
5 | O=C1CCC(c2ccc3c(c2)OCCN(Cc2ccccc2)C3=O)C(=O)N1 (stereo not shown) [AEV40086] | 4140
6 | O=C1CCC(c2ccc(F)cc2)C(=O)N1 (stereo not shown) [AEV40004] | 4430
7 | O=C1CCC(c2ccc3c(c2)C(=O)NC3)C(=O)N1 (stereo not shown) [AEV40032] | 3100
8 | CC1(C(=O)Nc2cccc(N3CCOc4cc(C5CCC(=O)NC5=O)ccc4C3=O)c2)CC1 (stereo not shown) [AEV40212] | 2300
9 | O=C1CCC(c2cccc(Nc3cccc(CCC(=O)NC4CC5(C4)CC(C(=O)O)C5)c3)c2)C(=O)N1 (stereo not shown) [AEV40211] | > 100000
10 | CC1CCC(C(=O)Nc2cccc(S(=O)(=O)Nc3cccc(C4CCC(=O)NC4=O)c3)c2)CC1 (stereo not shown) [AEV40224] | 2130
11 | O=C1CCC(c2ccc3oc(N4CCOCC4)nc3c2)C(=O)N1 (stereo not shown) [AEV40207] | 4570
12 | O=C1CCC(c2cccc(NCc3ccc(Cl)cc3)c2)C(=O)N1 (stereo not shown) [AEV40090] | 2140
13 | O=C1CCC(c2cccc(Nc3cccc(NC(=O)c4ccc(Cl)cc4Cl)c3)c2)C(=O)N1 (stereo not shown) [AEV40220] | 2110
14 | CCOC(=O)/C=C/c1cc(C)ccc1C1CCC(=O)NC1=O (stereo not shown) [AEV40160] | 2920
15 | O=C1CCC(c2ccc3c(c2)C(=O)NCC3)C(=O)N1 (stereo not shown) [AEV40078] | 3110
16 | O=C1CCC(c2cccc(NC(=O)c3ccc(-c4ccccc4)cc3)c2)C(=O)N1 (stereo not shown) [AEV40161] | > 10000
17 | O=C1CCC(c2cccc(NCc3cc(F)c(F)c(F)c3)c2)C(=O)N1 (stereo not shown) [AEV40110] | 1960
18 | CS(=O)(=O)N1Cc2cc(C3CCC(=O)NC3=O)ccc2C1=O (stereo not shown) [AEV40059] | 102000

Row | SMILES | IC50 [nM]
19 | O=C1CCC(c2cccc(NC(=O)c3ccccc3)c2)C(=O)N1 (stereo not shown) [AEV40088] | 2190
20 | CCCCCCOc1ccc(NC(=O)CCc2cccc(Nc3cccc(C4CCC(=O)NC4=O)c3)c2)cc1 (stereo not shown) [AEV40199] | 3470
21 | O=C1CCC(c2ccc3c(c2)OCCN(c2ccccc2)C3=O)C(=O)N1 (stereo not shown) [AEV40085] | 6580
22 | CCCCc1ccc(C(=O)Nc2cccc(Nc3cccc(C4CCC(=O)NC4=O)c3)c2)cc1 (stereo not shown) [AEV40221] | 1650
23 | CC(C)C(=O)Nc1cccc(C2CCC(=O)NC2=O)c1 (stereo not shown) [AEV40024] | 6110
24 | O=C1CCC(c2ccc3c(c2)CN(S(=O)(=O)c2ccc(Cl)cc2)C3=O)C(=O)N1 (stereo not shown) [AEV40077] | 55300
25 | O=C1CCC(c2cccc(NS(=O)(=O)c3cccc(NC(=O)c4ccc(Cl)cc4)c3)c2)C(=O)N1 (stereo not shown) [AEV40135] | 1200
26 | O=C1CCC(c2cccc(NC(=O)c3cc4ccccc4[nH]3)c2)C(=O)N1 (stereo not shown) [AEV40190] | 2140
27 | O=C1CCC(c2ccc3oc(N4CCCCC4)nc3c2)C(=O)N1 (stereo not shown) [AEV40208] | 3540
28 | O=C1CCC(c2ccc3c(c2)OCCNC3=O)C(=O)N1 (stereo not shown) [AEV40079] | 2440
29 | Cc1ccc(NC(=O)CCc2cccc(Nc3cccc(C4CCC(=O)NC4=O)c3)c2)cc1Cl (stereo not shown) [AEV40185] | 4350
30 | O=C1CCC(c2cccc(NCc3ccc(C(F)(F)F)cc3)c2)C(=O)N1 (stereo not shown) [AEV40104] | 1720
31 | Cc1ccc(C(=O)Nc2cccc(C3CCC(=O)NC3=O)c2)cc1 (stereo not shown) [AEV40141] | 2080
32 | O=C1CCC(c2cccc(Nc3cccc(NC(=O)C4(C(=O)Nc5ccc(F)cc5)CC4)c3)c2)C(=O)N1 (stereo not shown) [AEV40219] | 2210
33 | Nc1cccc(N2CCOc3cc(C4CCC(=O)NC4=O)ccc3C2=O)c1 (stereo not shown) [AEV40206] | 3690
34 | O=C1CCC(c2cccc(NS(=O)(=O)c3cccc(NC(=O)c4ccc(Cl)cc4Cl)c3)c2)C(=O)N1 (stereo not shown) [AEV40150] | 1820
35 | COC(=O)c1cccc(S(=O)(=O)Nc2cccc(C3CCC(=O)NC3=O)c2)c1 (stereo not shown) [AEV40226] | 2220

Now from value to compound:

Row | IC50 [nM] | SMILES
36 | 1580 | Cc1ccc(CNc2cccc(C3CCC(=O)NC3=O)c2)cc1F (stereo not shown) [AEV40095]
37 | 1520 | Cc1ccc([N+](=O)[O-])cc1S(=O)(=O)Nc1cccc(C2CCC(=O)NC2=O)c1 (stereo not shown) [AEV40060]
38 | 1490 | O=C1CCC(c2cccc(NCc3cccc(F)c3)c2)C(=O)N1 (stereo not shown) [AEV40107]
39 | 1490 | O=C1CCC(c2cccc(NS(=O)(=O)c3cccc(NC(=O)c4c(Cl)ccc(Cl)c4F)c3)c2)C(=O)N1 (stereo not shown) [AEV40159]
40 | 1410 | COC(=O)CCc1cccc(Nc2cccc(C3CCC(=O)NC3=O)c2)c1 (stereo not shown) [AEV40184]
41 | 1410 | O=C1CCC(c2cccc(NCc3cccc4ccccc34)c2)C(=O)N1 (stereo not shown) [AEV40120]
42 | 1390 | O=C1CCC(c2ccc3c(c2)CNC3=O)C(=O)N1 (stereo not shown) [AEV40040]
43 | 1380 | O=C1CCC(c2cccc(NC(=O)c3cc(Br)ccc3Cl)c2)C(=O)N1 (stereo not shown) [AEV40223]
44 | 1300 | O=C1CCC(c2cccc(NS(=O)(=O)c3ccc(F)cc3)c2)C(=O)N1 (stereo not shown) [AEV40101]
45 | 1280 | O=C1CCC(c2cccc(NS(=O)(=O)c3cccc(NCc4ccc5[nH]ccc5c4)c3)c2)C(=O)N1 (stereo not shown) [AEV40171]
46 | 1250 | O=C1CCC(c2cccc(NS(=O)(=O)c3cccc(NC(=O)c4c(F)cccc4F)c3)c2)C(=O)N1 (stereo not shown) [AEV40156]
47 | 1140 | O=C1CCC(c2cccc(O)c2)C(=O)N1 (stereo not shown) [AEV40089]
48 | 1140 | Cc1cccc(CNc2cccc(C3CCC(=O)NC3=O)c2)c1 (stereo not shown) [AEV40106]
49 | 1130 | O=C1CCC(c2cccc(NC(=O)c3cccc(Cl)c3Cl)c2)C(=O)N1 (stereo not shown) [AEV40134]
50 | 1130 | COc1ccc(CN2CCOc3ccc(C4CCC(=O)NC4=O)cc3C2=O)cc1 (stereo not shown) [AEV40036]
51 | 1120 | COc1cc(Cl)ccc1C(=O)Nc1cccc(C2CCC(=O)NC2=O)c1 (stereo not shown) [AEV40148]
52 | 1050 | O=C1CCC(c2cccc(NC(=O)c3n[nH]cc3Cl)c2)C(=O)N1 (stereo not shown) [AEV40183]
53 | 1030 | O=C1CCC(c2cccc(NC(=O)c3ccccc3F)c2)C(=O)N1 (stereo not shown) [AEV40145]
54 | 1000 | CCc1ccc(S(=O)(=O)Nc2cccc(C3CCC(=O)NC3=O)c2)cc1 (stereo not shown) [AEV40046]
55 | 980 | CC1(C(=O)Nc2cccc(S(=O)(=O)Nc3cccc(C4CCC(=O)NC4=O)c3)c2)CC1 (stereo not shown) [AEV40227]
56 | 970 | Cc1ccc(CNc2cccc(C3CCC(=O)NC3=O)c2)s1 (stereo not shown) [AEV40092]
57 | 960 | O=C1CCC(c2cccc(NC(=O)c3ccccc3Cl)c2)C(=O)N1 (stereo not shown) [AEV40144]
58 | 960 | CC(=O)N1CCC(NC(=O)CCc2cccc(Nc3cccc(C4CCC(=O)NC4=O)c3)c2)CC1 (stereo not shown) [AEV40200]
59 | 930 | Cc1ccc(C(=O)Nc2cccc(C3CCC(=O)NC3=O)c2)c(C)c1 (stereo not shown) [AEV40165]
60 | 910 | O=C1CCC(c2cccc(Nc3cccc(CCC(=O)Nc4cc(-c5ccccc5)[nH]n4)c3)c2)C(=O)N1 (stereo not shown) [AEV40209]
61 | 910 | Cc1c(Cl)cccc1S(=O)(=O)Nc1cccc(C2CCC(=O)NC2=O)c1 (stereo not shown) [AEV40043]

Row | IC50 [nM] | SMILES
62 | 880 | O=C1CCC(c2cccc(NC(=O)c3sccc3Cl)c2)C(=O)N1 (stereo not shown) [AEV40182]
63 | 870 | Cc1ccc(C2CCC(=O)NC2=O)cc1 (stereo not shown) [AEV40039]
64 | 860 | O=C1CCC(c2cccc(NS(=O)(=O)c3ccc(Cl)cc3)c2)C(=O)N1 (stereo not shown) [AEV40037]
65 | 840 | O=C1CCC(c2cccc(Nc3cccc(CCC(=O)N4CCS(=O)(=O)CC4)c3)c2)C(=O)N1 (stereo not shown) [AEV40205]
66 | 840 | COc1cc(C)ccc1CNc1cccc(C2CCC(=O)NC2=O)c1 (stereo not shown) [AEV40108]
67 | 820 | CCCCc1ccc(C(=O)Nc2cccc(N3CCOc4cc(C5CCC(=O)NC5=O)ccc4C3=O)c2)cc1 (stereo not shown) [AEV40214]
68 | 810 | Cc1ccc(CNc2cccc(C3CCC(=O)NC3=O)c2)c(C)c1 (stereo not shown) [AEV40094]
69 | 790 | Nc1nn(C(=O)CCc2cccc(Nc3cccc(C4CCC(=O)NC4=O)c3)c2)c2ccccc12 (stereo not shown) [AEV40202]
70 | 790 | Cn1cnc(S(=O)(=O)Nc2cccc(C3CCC(=O)NC3=O)c2)c1 (stereo not shown) [AEV40051]
71 | 790 | O=C1CCC(c2cccc(NS(=O)(=O)c3cccc(NC(=O)c4cccc(Cl)c4)c3)c2)C(=O)N1 (stereo not shown) [AEV40136]
72 | 750 | O=C1CCC(c2cccc(NS(=O)(=O)c3ccc([N+](=O)[O-])c(C(F)(F)F)c3)c2)C(=O)N1 (stereo not shown) [AEV40053]
73 | 730 | O=C1CCC(c2cccc(NS(=O)(=O)c3cccc(NC(=O)c4cccc(Br)c4)c3)c2)C(=O)N1 (stereo not shown) [AEV40157]
74 | 720 | O=C1CCC(c2cccc(NS(=O)(=O)c3cccc(NC(=O)c4ccccc4C(F)(F)F)c3)c2)C(=O)N1 (stereo not shown) [AEV40152]
75 | 710 | O=C1CCC(c2cccc(NS(=O)(=O)c3cccc(NC(=O)c4cc(F)cc(F)c4F)c3)c2)C(=O)N1 (stereo not shown) [AEV40158]
76 | 660 | Cc1cn(C)nc1CNc1cccc(C2CCC(=O)NC2=O)c1 (stereo not shown) [AEV40113]
77 | 590 | Nc1cccc(S(=O)(=O)Nc2cccc(C3CCC(=O)NC3=O)c2)c1 (stereo not shown) [AEV40073]
78 | 590 | O=C1CCC(c2cccc(NS(=O)(=O)c3ccccc3[N+](=O)[O-])c2)C(=O)N1 (stereo not shown) [AEV40061]
79 | 480 | O=C1CCC(c2cccc(NC(=O)c3cccc4[nH]ccc34)c2)C(=O)N1 (stereo not shown) [AEV40191]
80 | 400 | O=C1CCC(c2cccc(NS(=O)(=O)c3cccc(NCc4c[nH]c5ccc(Cl)cc45)c3)c2)C(=O)N1 (stereo not shown) [AEV40173]
81 | 370 | O=C1CCC(c2cccc(NC(=O)Nc3ccccc3)c2)C(=O)N1 (stereo not shown) [AEV40129]
82 | 340 | COc1ccccc1C(=O)Nc1cccc(S(=O)(=O)Nc2cccc(C3CCC(=O)NC3=O)c2)c1 (stereo not shown) [AEV40151]
83 | 220 | O=C1CCC(c2cccc(NS(=O)(=O)c3ccc4oc(=O)ccc4c3)c2)C(=O)N1 (stereo not shown) [AEV40071]
84 | 210 | O=C1CCC(c2cccc(NS(=O)(=O)c3cccc(NCc4ccc5ocnc5c4)c3)c2)C(=O)N1 (stereo not shown) [AEV40172]
85 | 200 | O=C1CCC(c2cccc(NS(=O)(=O)c3ccc([N+](=O)[O-])cc3)c2)C(=O)N1 (stereo not shown) [AEV40055]
86 | 200 | O=C1CCC(c2cccc(NS(=O)(=O)c3ccc(Cl)cc3Cl)c2)C(=O)N1 (stereo not shown) [AEV40054]
87 | 190 | O=C1CCC(c2cccc(NC(=O)Nc3ccc(Cl)cc3)c2)C(=O)N1 (stereo not shown) [AEV40131]

Same assay, conditions: read-out: Alpha IC50; Table 1; AlphaScreen, PROTAC Optimization Kit for BET Bromodomain-Cereblon Binding

Row | SMILES | IC50 [nM]
88 | Cc1cccc(S(=O)(=O)Nc2cccc(C3CCC(=O)NC3=O)c2)c1 (stereo not shown) [AEV40069] | 710
